This is an account of results in patent US11059795B2, “Androgen receptor modulators and methods for their use” (ESSA Pharma, Inc., priority 2018, dated 2021).

Series [1] is described as follows: Hepatocyte stability assay, mouse hepatocytes. The format is in vitro ADME. As to conditions: 1 μM compound, 0.5 million cells/mL, 37° C.; for hepatocyte CLint at 1 μM: mouse, cryopreserved hepatocytes, read-out: MH +/− NADPH: Clint (μL/min/million cells). A digest of the protocol:
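Cryopreserved rat, human or mouse hepatocytes at 0.5 million cells/mL in DMEM with 1 μM compound, 37° C, sampled at 0, 60, 120 and 180 min and quenched with acetonitrile/formic acid. Parent loss vs 0-min by LC/MS/MS gave t½, and Clint = 0.693/t½ × mL incubation/million cells.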

A short description of series [2]: Microsomal stability assay, mouse liver microsomes. Format: in vitro ADME. As to conditions: 1 μM compound, 0.5 mg/mL protein, 37° C.; for microsomal CLint at 1 μM: mouse, liver microsomes, pH 7.4, mouse liver microsomes, read-out: MLM +30/− NADPH: Clint (μL/min/mg protein). A digest of the protocol:
(§1)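 Compound at 1 μM was incubated at 37° C with 0.5 mg/mL liver microsomes and 1 mM NADPH and/or 1 mM UDPGA (with alamethicin) in 100 mM potassium phosphate pH 7.4, 3 mM MgCl2. Samples were taken at 0, 15, 30 and 60 min and measured by LC/MS/MS. t½ came from compound loss relative to 0 min, and Clint was scaled with 45 mg microsomal protein/g liver.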

Series [3] addresses T1, androgen receptor (AR) (Homo sapiens, UniProt P10275, T878A).
T1 construct: LNCaP cells were transiently transfected with the PSA (6.1 kb)-luciferase reporter for 24 h; endogenous in cells; host or cells: LNCaP
T1 sequence (P10275 1-920 T878A): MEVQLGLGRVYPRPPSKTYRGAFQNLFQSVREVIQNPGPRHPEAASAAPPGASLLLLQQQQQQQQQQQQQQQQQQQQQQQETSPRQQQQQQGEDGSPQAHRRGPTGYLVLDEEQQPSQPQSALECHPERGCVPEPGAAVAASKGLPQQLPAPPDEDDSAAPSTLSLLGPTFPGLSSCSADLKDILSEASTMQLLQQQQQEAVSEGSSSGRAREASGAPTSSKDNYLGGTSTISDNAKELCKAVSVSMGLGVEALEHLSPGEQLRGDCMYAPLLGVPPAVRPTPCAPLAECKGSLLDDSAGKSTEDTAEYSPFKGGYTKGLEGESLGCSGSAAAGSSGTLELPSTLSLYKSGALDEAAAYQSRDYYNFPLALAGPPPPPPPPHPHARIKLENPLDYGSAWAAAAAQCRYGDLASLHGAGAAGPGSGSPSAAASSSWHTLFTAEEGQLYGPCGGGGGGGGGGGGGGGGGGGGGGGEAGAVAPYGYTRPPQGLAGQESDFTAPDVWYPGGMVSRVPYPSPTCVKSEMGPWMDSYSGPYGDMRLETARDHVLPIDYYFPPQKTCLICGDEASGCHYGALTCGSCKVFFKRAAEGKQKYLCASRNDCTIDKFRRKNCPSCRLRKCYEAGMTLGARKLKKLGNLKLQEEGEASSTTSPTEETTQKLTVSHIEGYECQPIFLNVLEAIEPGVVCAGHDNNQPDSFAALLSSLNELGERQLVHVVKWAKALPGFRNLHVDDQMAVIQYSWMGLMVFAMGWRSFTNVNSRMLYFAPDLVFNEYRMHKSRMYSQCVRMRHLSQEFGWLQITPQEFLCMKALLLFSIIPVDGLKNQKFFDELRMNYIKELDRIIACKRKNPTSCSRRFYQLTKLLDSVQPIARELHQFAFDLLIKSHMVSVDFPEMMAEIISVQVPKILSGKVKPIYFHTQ
In words: Androgen-induced PSA (6.1 kb)-luciferase reporter assay in LNCaP cells. The format is cell-based. As to conditions: LNCaP cells transfected with PSA (6.1 kb)-luciferase reporter, R1881 1 nM, 24 h; read-out: PSA-Luc IC50 Range. Summed up: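 Read-out is firefly luminescence (10 s) in LNCaP lysates, normalized to protein, from an ARE-containing PSA (6.1 kb)-luciferase reporter driven by androgen.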
(Reporter assays use an easily measured gene product as a stand-in for the process of interest.)

The nature of series [4]: Microsomal stability assay, human liver microsomes. The format is in vitro ADME. As to conditions: 0.5 mg/mL protein, 37° C.; for microsomal CLint at 1 μM: pH 7.4, 1 μM compound, read-out: HLM +/− NADPH: Clint (μL/min/mg protein). A digest of the protocol: as §1
(In general: Liver microsomes are a subcellular fraction often used to study metabolism.)

pIC50: −log10 of the molar value.

As to `CC(C)(c1ccc(OCc2nccnc2NS(C)(=O)=O)cc1)c1cc(Cl)c(OCCCl)c(C#N)c1` [Compound A104], in series [1], the “MH +/− NADPH: Clint (μL/min/million cells)” value is on record as “* (* represents Cl in the range of ≥18 μL/min/million cells)”. The “MLM +30/− NADPH: Clint (μL/min/mg protein)” value in series [2] (mouse liver microsomes) is “* (* represents Cl in the range of ≥48 μL/min/mg protein)”. In series [3], the pIC50 (commonly the negative decadic logarithm of the IC50, by convention in mol/L) is above 6.30. The “HLM +/− NADPH: Clint (μL/min/mg protein)” value in series [4] (1 μM compound) is reported as “** (** represents Cl in the range of 12-48 μL/min/mg protein)”.
`CC(C)(c1ccc(OCc2cnc(S(C)(=O)=O)s2)cc1)c1cc(Cl)c(OCCCl)c(C#N)c1` [Compound A149]: the hepatocyte CLint at 1 μM in series [1] is at least 18 µL/min/1e6 cells. For the same molecule, the microsomal CLint at 1 μM in series [2] and in series [4] was below 12 µL/min/mg each time. The pIC50 in series [3] is above 6.30.
Regarding `CC(C)(c1ccc(OCc2nnccc2NS(C)(=O)=O)cc1)c1cc(Cl)c(OCCCl)c(C#N)c1` [Compound A101], the hepatocyte CLint at 1 μM in series [1] lay in the range of 4 to 18 µL/min/1e6 cells. The microsomal CLint at 1 μM in series [2] was 12 to 48 µL/min/mg; in series [4], at least 48 µL/min/mg. Further, the pIC50 in series [3] is 5.70 to 6.30.
As to `CC(=O)NN1C(=O)N(c2ccc(C(C)(C)c3cc(Cl)c(OCCCl)c(Cl)c3)cc2)C(=O)C1(C)C` [Compound B5], the hepatocyte CLint at 1 μM in series [1] was 4 to 18 µL/min/1e6 cells. Also, the microsomal CLint at 1 μM in series [2] and in series [4] was below 12 µL/min/mg throughout. The pIC50 in series [3] is 5.70 to 6.30.
Turning to `CC(C)(c1ccc(OCc2coc(S(N)(=O)=O)c2)cc1)c1cc(Cl)c(OCCCl)c(C#N)c1` [Compound A207], in series [1], the hepatocyte CLint at 1 μM was below 4 µL/min/1e6 cells. Also, the microsomal CLint at 1 μM in series [2] and in series [4] was below 12 µL/min/mg each time. Moreover, in series [3], the pIC50 is above 6.30.
Regarding `COC(=O)Nc1nc(COc2ccc(C(C)(C)c3cc(Cl)c(OCCCl)c(C#N)c3)cc2)co1` [Compound A156], the hepatocyte CLint at 1 μM in series [1] is at least 18 µL/min/1e6 cells. In addition, the microsomal CLint at 1 μM in series [2] and in series [4] was 12 to 48 µL/min/mg each time. In series [3], the negative-log IC50 (pIC50) was above 6.30.
Regarding `CC(=O)Nc1nccc(COc2ccc(C(C)(C)c3cc(C)c(OCCCl)c(C#N)c3)cc2)n1` [Compound A100], the hepatocyte CLint at 1 μM in series [1] is at least 18 µL/min/1e6 cells. The microsomal CLint at 1 μM in series [2] and in series [4] was at least 48 µL/min/mg throughout. In series [3], the pIC50 was above 6.30.
For the molecule `CC(N)(c1ccc(OCc2ocnc2S(C)(=O)=O)cc1)c1cc(Cl)c(OCCCl)c(C#N)c1` (stereo not shown) [Compound A105], in series [1], the hepatocyte CLint at 1 μM was at least 18 µL/min/1e6 cells. The microsomal CLint at 1 μM is at least 48 µL/min/mg in series [2] and 12 to 48 µL/min/mg in series [4]. Also, the negative-log IC50 (pIC50) in series [3] was below 5.70.
In the same order, the values of `CC(C)(c1ccc(OCc2ccnc(NS(C)(=O)=O)c2)cc1)c1cc(Cl)c(OCCCl)c(C#N)c1` [Compound A195] are 4 to 18 µL/min/1e6 cells, below 12 µL/min/mg, below 12 µL/min/mg and above 6.30.
For `CC(C)(c1ccc(OCc2ccnnc2NS(C)(=O)=O)cc1)c1cc(Cl)c(OCCCl)c(C#N)c1` [Compound A102] the same measures were below 4 µL/min/1e6 cells, below 12 µL/min/mg, 12 to 48 µL/min/mg and above 6.30.
For the molecule `Cc1nc(N)cc(COc2ccc(C(C)(C)c3cc(Cl)c(OCCCl)c(C#N)c3)cc2)n1` [Compound A162], the hepatocyte CLint at 1 μM in series [1] is at least 18 µL/min/1e6 cells. The microsomal CLint at 1 μM in series [2] was at least 48 µL/min/mg; in series [4], 12 to 48 µL/min/mg. In addition, the pIC50 in series [3] is above 6.30.
For the molecule `CSc1nc(COc2ccc(C(C)(C)c3cc(Cl)c(OCCCl)c(C#N)c3)cc2)c(C)o1` [Compound A118], the hepatocyte CLint at 1 μM in series [1] is 4 to 18 µL/min/1e6 cells. The microsomal CLint at 1 μM in series [2] and in series [4] was at least 48 µL/min/mg in each case. Moreover, the pIC50 in series [3] is 5.70 to 6.30.
With `CC(C)(c1ccc(OCc2nc(NS(C)(=O)=O)nc3c2CCOC3)cc1)c1cc(Cl)c(OCCCl)c(C#N)c1` [Compound A190], the hepatocyte CLint at 1 μM in series [1] was at least 18 µL/min/1e6 cells. The microsomal CLint at 1 μM in series [2] was at least 48 µL/min/mg; in series [4], below 12 µL/min/mg. Further, the pIC50 in series [3] is 5.70 to 6.30.
In the same order, the values of `CC(Oc1ccc(C(C)(C)c2cc(Cl)c(OCCCl)c(C#N)c2)cc1)c1ccnc(NS(C)(=O)=O)n1` (stereo not shown) [Compound A98] are below 4 µL/min/1e6 cells, below 12 µL/min/mg, below 12 µL/min/mg and 5.70 to 6.30.
As for `CC(C)(c1ccc(OCc2cncc(NS(C)(=O)=O)n2)cc1)c1cc(Cl)c(OCCCl)c(C#N)c1` [Compound A185, N-(6-((4-(2-(3-chloro-4-(2-chloroethoxy)-5-cyanophenyl)propan-2-yl)phenoxy)methyl)pyrazin-2-yl)methanesulfonamide], in series [1], the hepatocyte CLint at 1 μM lay in the range of 4 to 18 µL/min/1e6 cells. In addition, the microsomal CLint at 1 μM in series [2] is 12 to 48 µL/min/mg; in series [4], below 12 µL/min/mg. In addition, in series [3], the pIC50 is above 6.30.
For `CC(C)(c1ccc(OCc2ncc(S(C)(=O)=O)[nH]2)cc1)c1cc(Cl)c(OCCCl)c(C#N)c1` [Compound A94] the same measures were 4 to 18 µL/min/1e6 cells, 12 to 48 µL/min/mg, 12 to 48 µL/min/mg and 5.70 to 6.30.
In the same order, the values of `Cc1cc(C(C)(C)c2ccc(OC(C)c3ncc(S(C)(=O)=O)o3)cc2)cc(C#N)c1OCCCl` (stereo not shown) [Compound A89] are at least 18 µL/min/1e6 cells, at least 48 µL/min/mg, 12 to 48 µL/min/mg and 5.70 to 6.30.
In the same order, the values of `CC(C)(c1ccc(OCc2nc(NS(C)(=O)=O)cs2)cc1)c1cc(Cl)c(OCCCl)c(C#N)c1` [Compound A137, N-(2-((4-(2-(3-Chloro-4-(2-chloroethoxy)-5-cyanophenyl)propan-2-yl)phenoxy)methyl)thiazol-4-yl)methanesulfonamide] are below 4 µL/min/1e6 cells, 12 to 48 µL/min/mg, below 12 µL/min/mg and above 6.30.
With `CC(C)(c1ccc(OCc2cc(CN)nc(NS(C)(=O)=O)n2)cc1)c1cc(Cl)c(OCCCl)c(C#N)c1` [Compound A164, N-(4-(aminomethyl)-6-((4-(2-(3-chloro-4-(2-chloroethoxy)-5-cyanophenyl)propan-2-yl)phenoxy)methyl)pyrimidin-2-yl)methanesulfonamide], the hepatocyte CLint at 1 μM in series [1] is below 4 µL/min/1e6 cells. Moreover, the microsomal CLint at 1 μM in series [2] and in series [4] was below 12 µL/min/mg throughout. Also, the pIC50 in series [3] was 5.70 to 6.30.
For `CC(Oc1ccc(C(C)(C)c2cc(Cl)c(OCCCl)c(C#N)c2)cc1)c1ncc(S(C)(=O)=O)o1` (stereo not shown) [Compound A90], the hepatocyte CLint at 1 μM in series [1] was at least 18 µL/min/1e6 cells. Besides, the figures for the microsomal CLint at 1 μM in series [2] and in series [4] were at least 48 µL/min/mg and below 12 µL/min/mg, respectively. The pIC50 in series [3] was 5.70 to 6.30.
As for `CC(C)(c1ccc(OCc2ccnc(N3CCCCS3(=O)=O)n2)cc1)c1cc(Cl)c(OCCCl)c(C#N)c1` [Compound A198], in series [1], the hepatocyte CLint at 1 μM lay in the range of 4 to 18 µL/min/1e6 cells. Moreover, the microsomal CLint at 1 μM in series [2] was 12 to 48 µL/min/mg; in series [4], below 12 µL/min/mg. Further, in series [3], the pIC50 was above 6.30.
In the same order, the values of `CC(Oc1ccc(C(C)(O)c2cc(Cl)c(OCCCl)c(C#N)c2)cc1)c1ocnc1S(C)(=O)=O` (stereo not shown) [Compound A95] are at least 18 µL/min/1e6 cells, at least 48 µL/min/mg, 12 to 48 µL/min/mg and below 5.70.
